Literature values, collected in US8163169B2, “Hydroconversion processes employing multi-metallic catalysts and method for making thereof” (Chevron U.S.A. Inc., priority 2007, dated 2012).

Tested on: rats
Details: single oral dose to rats

O=CC(=O)O [glyoxylic]
LD50: 3000 mg/kg
